Measurements from ChEMBL document CHEMBL1201862, “PubChem BioAssay data set” (2004).
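Method: 48-hour compound exposure of cells in 96-well plates, five concentrations, linear interpolation of endpoints. GI50: concentration for 50% inhibition of growth.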 Calls of active or inactive are those of the source. Rule as the data show it: active = GI50 up to about 1.1 µM and inactive = higher.

Columns and labels:
Experiment in all cases: NCI-60 cell line screen, 48 h
[1] = tested on: M14
[2] = tested on: RPMI-8226
[3] = tested on: CAKI-1
[4] = tested on: SK-MEL-2
[5] = tested on: COLO 205
[6] = tested on: LOX IMVI
[7] = tested on: 786-0
[8] = tested on: HCT-116
[9] = tested on: HOP-18
[10] = tested on: MOLT-4
[11] = tested on: Malme-3M
[12] = tested on: HCC 2998
[13] = tested on: SNB-75
[14] = tested on: HT-29
[15] = tested on: SF-295
[16] = tested on: SK-MEL-28
[17] = tested on: OVCAR-3
[18] = tested on: SK-OV-3
[19] = tested on: NCI-H23
[20] = tested on: OVCAR-8
[21] = tested on: K562
[22] = tested on: CCRF-CEM
[23] = tested on: M19-MEL
[24] = tested on: RXF 631
[25] = tested on: IGROV-1
[26] = tested on: U-251
[27] = tested on: OVCAR-5
[28] = tested on: UACC-62
[29] = tested on: DMS-273
[30] = tested on: OVCAR-4
[31] = tested on: LXFL 529
[32] = tested on: SNB-19
[33] = tested on: SW-620
[34] = tested on: SNB-78
[35] = tested on: HOP-62
[36] = tested on: HCT-15
[37] = tested on: NCI-H460
[38] = tested on: SF-268
[39] = tested on: UACC-257
[40] = tested on: XF498
[41] = tested on: EKVX
[42] = tested on: A549
[43] = tested on: DLD-1
[44] = tested on: KM12
[45] = tested on: SK-MEL-5
[46] = tested on: A498
[47] = tested on: UO-31
[48] = tested on: KM-20L2
[49] = tested on: SN12C
[50] = tested on: SF-539
[51] = tested on: RXF 393
[52] = tested on: ACHN
[53] = tested on: TK-10
[54] = tested on: DMS-114
[55] = tested on: NCI-H226
[56] = tested on: NCI-H522
[57] = tested on: HOP-92
[58] = tested on: HL-60

Measured: GI50

Cc1nn(-c2ccccc2)c2nc(N3CCOCC3)nnc12
inactive: [1] 97.1 µM | [2] 46.6 µM | [3] 39.6 µM | [4] 51.3 µM | [5] > 100 µM | [6] > 100 µM | [7] > 100 µM | [8] > 100 µM | [10] 40.6 µM | [11] 64 µM | [12] > 100 µM | [13] 40.3 µM | [14] > 100 µM | [15] > 100 µM | [16] > 100 µM | [17] 88.7 µM | [18] > 100 µM | [19] 79.6 µM | [20] 92.5 µM | [21] > 100 µM | [22] > 100 µM | [23] > 100 µM | [24] 92.7 µM | [25] > 100 µM | [26] 52.8 µM | [27] > 100 µM | [28] 69.2 µM | [29] > 100 µM | [30] 34.7 µM | [31] 53.3 µM | [32] > 100 µM | [33] > 100 µM | [34] > 100 µM | [35] > 100 µM | [37] > 100 µM | [38] > 100 µM | [39] > 100 µM | [40] 51.8 µM | [41] > 100 µM | [42] 94.4 µM | [43] 59.2 µM | [44] > 100 µM | [45] 49.2 µM | [46] 66.1 µM | [47] 28.6 µM | [48] > 100 µM | [49] > 100 µM | [50] 24.4 µM | [51] > 100 µM | [52] 71.9 µM | [53] > 100 µM | [54] 34.4 µM
active: [9] < 0.01 µM
65 µM: [36]

O=c1[nH]cc(COCC(O)CO)c(=O)[nH]1 (stereo unspecified)
> 100 µM: [36]
inactive: [1] > 100 µM | [2] > 100 µM | [3] > 100 µM | [4] > 100 µM | [55] > 100 µM | [5] > 100 µM | [6] > 100 µM | [7] > 100 µM | [8] > 100 µM | [9] > 100 µM | [10] > 100 µM | [11] > 100 µM | [13] > 100 µM | [14] > 100 µM | [15] > 100 µM | [16] > 100 µM | [17] > 100 µM | [18] > 100 µM | [56] > 100 µM | [19] > 100 µM | [20] > 100 µM | [21] > 100 µM | [22] > 100 µM | [23] > 100 µM | [24] > 100 µM | [25] > 100 µM | [26] > 100 µM | [57] > 100 µM | [27] > 100 µM | [28] > 100 µM | [29] > 100 µM | [30] > 100 µM | [31] > 100 µM | [32] > 100 µM | [33] > 100 µM | [34] > 100 µM | [35] > 100 µM | [37] > 100 µM | [58] > 100 µM | [38] > 100 µM | [39] > 100 µM | [40] > 100 µM | [41] > 100 µM | [42] > 100 µM | [43] > 100 µM | [44] > 100 µM | [45] > 100 µM | [46] > 100 µM | [47] > 100 µM | [48] > 100 µM | [49] > 100 µM | [50] > 100 µM | [51] > 100 µM | [52] > 100 µM | [53] > 100 µM | [54] > 100 µM
